Results taken from patent US6455075B1, “Method for control of insects on plants and plant tissue” (priority 1996, dated 2002).

Legend:
[1] = tested on: insect populations
Experimental: (§1) Long and 25 ft. Wide, was filled with various species of household plants, of which most had infestations of some type of insect pest. (Table 2) All other treatments were stopped two weeks prior to treatment with the solution of the present invention. Yellow sticky cards were placed throughout the greenhouse for three days prior to treatment and then were counted for the various species of insects present. The greenhouse was then treated with 12 gallons of a 1:50 dilution of the solution of the present invention using a Dram™ hydraulic sprayer. The house was sprayed on three day intervals for a period of three weeks. Sticky cards were placed in selected areas through out the greenhouse during the three week period.

[2] = tested on: THRIPS
Experimental: as §1

[3] = tested on: various species of household plants; conditions: throughout the three week treatment period, most plants in bloom
Experimental: as §1

[4] = tested on: plant pathogens; conditions: dilute solution
[5] = tested on: Botrytis and Black Spot Mold; conditions: flowers wetted with dilute solution before wrapping
Experimental: In the cut flower industry, the moist flowers are wrapped in plastic prior to placement in the shipping boxes for transit. Ice is added to the boxes in many cases to help keep the flowers fresh during transit. This closed, moist environment is very conducive to Botrytis and Black Spot Mold.

[6] = tested on: root rot and other infectious pathogens; conditions: cuttings dipped in 0.5% hydrogen peroxide, dilute solution in misting system
[7] = tested on: black mold growing on the excrement of the aphids; conditions: leaves of New Guinea Impatiens
[8] = tested on: Roses; conditions: after six weeks of observation
Experimental: (§2) To insure objectivity, the greenhouses selected were not all commonly owned and many varieties of roses were included in the testing. […] The effectiveness of the spray was measured by microbial culture of the surfaces of the greenhouse and the leaf surfaces of the treated and untreated plants. […] It is well known that these fungi are airborne.

[9] = tested on: fungus gnats; conditions: greenhouse treatment; probably due to removal of food source
Experimental: as §2

[10] = tested on: total mold count, including Botrytis and those molds causing Powdery Mildew
Experimental: as §2

[11] = tested on: mealy bug, white fly, aphids, spider mites, and thrip
Experimental: as §2

[12] = tested on: living plants; conditions: dilute solution
[13] = tested on: Botrytis cinerea; conditions: 0.05% Hydrogen Peroxide mist during entire propagation; one mature leaf from each of 10 cuttings, averaged
Experimental: In this study 500 zonal geranium cuttings were treated with a mist during the entire course of their propagation. One mature leaf from each of 10 terminal stem cuttings following treatment were sampled and the data was averaged.

## OO [hydrogen peroxide]
[1]; 10 days and post 5 treatments
  reduction of insect populations: marked reduction of insect populations
[1]; after one treatment, 72 hr card exposure
  reduction in insect populations: did not indicate any significant reduction
[2]; 10 days and post 5 treatments, seven day card exposure
  reduction of Thrips: greatly reduced
[2]; after subsequent treatments, 72 hour exposure time
  average Thrips present per card: 7-10
[3]
  phytotoxicity or other detrimental effect to the plants: no evidence of phytotoxicity
[4]
  plant pathogens present on the surfaces: either totally eradicated or substantially reduced
[5]
  appearance of detrimental fungi: prevented and or delayed the appearance of the detrimental fungi
[6]
  cutting loss: virtually eliminated cutting loss
[7]
  effect on black mold: quickly neutralized the mold
[8]
  adverse effects upon the plants: No adverse effects
[9]
  effect on fungus gnats: eliminated
[10]; 1 % solution sprayed at least four times
  total mold count: killed or seriously reduced the total mold count
[10]; after the first application of 1 % hydrogen peroxide
  treated plants and surfaces free of total fungi (microbial culture): ~100%
[10]; daily applications of 500 PPM over several weeks
  recontamination by fungi (microbial culture): no recontamination by fungi occurred
[11]; field trials
  effect upon insect pests present in the greenhouse: lethal effect
[11]; greenhouse treatment of the preceding example
  effect on larval stages of insect pests: destruction of the larval stages
[12]
  adverse effects on the plants: no adverse affects
[13]
  MICRO-ORGANISMS/LEAF: 38
